{"source": "patent US11905522B2", "about": "“Treatment of diseases by liver expression of an enzyme which has a deoxyribonuclease (DNase) activity” (CLS THERAPEUTICS LIMITED, priority 2018, dated 2024)", "key": {"MIA PaCa-2 xenografts": {"test_system": "MIA PaCa-2 xenografts", "conditions": "vector 1.00 × 10^11 GC/kg IV single dose (Groups 2, 3), Gemcitabine 60 mg/kg IP BIW", "method": "56 female BALB/c nude mice (IBCH RAN) of 6-8 weeks age and 18-22 g weight were used in experiment. The mice were kept in individual ventilation cages at controlled temperature and humidity with four animals in each cage. Each mouse was inoculated subcutaneously at the right flank with MIA PaCa-2 pancreatic tumor cells (1×10^7) in 0.2 ml of PBS supplemented with BD Matrigel (1:1) for tumor development. The treatments were started on day 17 after tumor inoculation when the average tumor size reached approximately 170 mm^3. Each group consisted of eight tumor-bearing mice.\nTumor size was measured twice weekly in two dimensions using a caliper, and the volume was expressed in mm^3 using the formula: V=0.5 a×b^2 where a and b are the long and short diameters of the tumor, respectively. At the time of routine monitoring, the animals were checked daily for any effects of tumor growth and treatments on normal behavior such as mobility, food and water consumption by visual inspection only, loss or gain of body weight (measured twice weekly), eye/hair matting, and any other abnormal effects. On day 35, the study was terminated, the mice were humanely sacrificed by CO2, and blood was sampled from the central and hepatic veins. Liver tissues were also sampled and immersed into formalin for fixing."}, "[1]": {"test_system": "cfDNA in the liver tissue", "test": "cfDNA in liver tissue by immunohistochemistry, MIA PaCa-2 model", "type": "in vivo, BALB/c nude mice", "conditions": "day 35; vector given with gemcitabine (Group 2); gemcitabine alone (Group 7)", "protocol": "Detection was performed using microplate photometer (Multiscan FC) at 450 nm with a correction wavelength of 620 nm. cfDNA in the liver tissue was quantified by immunohistochemistry (IHC) in liver paraffin slides using AC-30-10 mouse IgG DNA binding antibodies (Sigma) as primary antibodies and Novolink Polymer Detection Systems Novocastra (Leica Biosystems)."}, "[2]": {"test": "Serum DNase I activity (ORG590), MIA PaCa-2 model", "type": "in vivo, BALB/c nude mice", "conditions": "day 35, regimen per Table 3 (rhDNaseI protein 50 mg/kg, Group 6)", "protocol": "Serum DNase I activity was measured using ORG590 (Orgentec) according to the manufacturer's protocol. Detection was performed using microplate photometer (Multiscan FC) at 450 nm with a correction wavelength of 620 nm. cfDNA in the liver tissue was quantified by immunohistochemistry (IHC) in liver paraffin slides using AC-30-10 mouse IgG DNA binding antibodies (Sigma) as primary antibodies and Novolink Polymer Detection Systems Novocastra (Leica Biosystems)."}, "Circulating cfDNA": {"test_system": "Circulating cfDNA", "conditions": "day 35; regimen per Table 3 (rhDNaseI protein 50 mg/kg, Group 6)", "protocol": "SYBR® Gold Nucleic Acid Gel Stain (Invitrogen) was diluted first at 1:1000 in dimethyl sulphoxide and then at 1:8 in phosphate-buffered saline. 10 μl of plasma samples were applied to 96-well plates. 40 μl of diluted SYBR® Gold was added to each well (final dilution 1:10,000) and fluorescence was measured with a 96 well fluorometer at an emission wavelength of 535 nm and an excitation wavelength of 485 nm."}, "[3]": {"test_system": "lung carcinoma and hepatoma metastatic disease", "conditions": "administered daily at 0.02-2.3 mg/kg; cited from earlier work"}, "GVHD": {"test_system": "GVHD", "conditions": "mouse, in vivo; cited from earlier work"}, "[4]": {"test_system": "16S universal bacterial RNA gene", "test": "16S universal bacterial RNA gene quantification in liver and brain, leaky gut rats", "type": "in vivo, Wistar rats", "conditions": "twice daily IV 50 mg/kg day 7 to day 12"}, "[5]": {"test": "DNase activity in blood, bacteriophage-induced leaky gut rats", "type": "in vivo, Wistar rats", "conditions": "twice daily IV 50 mg/kg day 7 to day 12", "protocol": "At day 7 of phage treatment, rats were randomized into 4 groups as follows: six rats received intrahepatic injection of 1.0×10^12 LVP in a volume of 200 μl; six rats received injection of 1.0×10^12 LVP in a volume of 200 μl into a thigh muscle; six rats received twice daily intravenous injections of recombinant DNase I protein at 50 mg/kg between day 7 and day 12. The remaining six rats were used as the untreated leaky gut control. An additional six healthy rats were used as a healthy control. At day 12, all rats were sacrificed and blood samples were collected for measurement of the DNase activity in blood.\nSerum DNase I activity was measured using ORG590 (Orgentec) according to the manufacturer's protocol. Detection was performed using microplate photometer (Multiscan FC) at 450 nm with a correction wavelength of 620 nm."}, "NLRP3": {"test_system": "NLRP3", "test": "Brain NLRP3 inflammasome expression by RT-PCR, leaky gut rats", "conditions": "twice daily IV 50 mg/kg day 7 to day 12", "protocol": "Leaky gut was induced in 24 rats using a bacteriophage cocktail against Enterobacteriaceae, Staphylococcaceae, and Streptococcaceae families so as to induce microbiota diseases. […] Phages (1.5 mL, 1×10^6 plaque-forming units/mL of each phage cocktail) were added to drinking water according to the manufacturer's instruction and administered orally for 10 days. At day 7 of phage treatment, rats were randomized into 4 groups as follows: six rats received intrahepatic injection of 1.0×10^12 LVP in a volume of 200 μl; six rats received injection of 1.0×10^12 LVP in a volume of 200 μl into a thigh muscle; six rats received twice daily intravenous injections of recombinant DNase I protein at 50 mg/kg between day 7 and day 12. The remaining six rats were used as the untreated leaky gut control. An additional six healthy rats were used as a healthy control. […] Brain autopsies were collected to perform NLRP3 inflammasome expression analysis and 16S universal bacterial RNA gene quantification.\nNLRP3 expression was assessed by collection of 50 mg cortical tissue samples. RNA was isolated using the SV total RNA isolation system (Promega). Superscript III one-step RT-PCR system with platinum Taq DNA Polymerase (Invitrogen) was used for reverse transcriptase-PCR using 5′-[sequence]-3′ (SEQ ID NO: 11) as forward NLRP3 primer and 5′-[sequence]-3′ (SEQ ID NO: 12) as reverse NLRP3 primer. […]"}}, "note": "Where two headings read alike, the source gives them in different places."}
{"molecule": "Nc1ccn([C@@H]2O[C@H](CO)[C@@H](O)C2(F)F)c(=O)n1", "note": "[Gemcitabine]", "values": [{"measurement": "mean tumor volume", "setting": "MIA PaCa-2 xenografts; Day 17", "value": "170 ± 13", "unit": "mm^3"}, {"measurement": "mean tumor volume", "setting": "MIA PaCa-2 xenografts; Day 21", "value": "164 ± 14", "unit": "mm^3"}, {"measurement": "mean tumor volume", "setting": "MIA PaCa-2 xenografts; Day 24", "value": "197 ± 17", "unit": "mm^3"}, {"measurement": "mean tumor volume", "setting": "MIA PaCa-2 xenografts; Day 28", "value": "246 ± 10", "unit": "mm^3"}, {"measurement": "mean tumor volume", "setting": "MIA PaCa-2 xenografts; Day 31", "value": "220 ± 8", "unit": "mm^3"}, {"measurement": "mean tumor volume", "setting": "MIA PaCa-2 xenografts; Day 35", "value": "264 ± 14", "unit": "mm^3"}, {"measurement": "cfDNA in the liver (IHC microphotographs, FIG. 4)", "setting": "[1]", "value": "A large amount of cfDNA"}, {"measurement": "Dnase activity in blood", "setting": "[2]; central vein", "value": 1.15, "unit": "mKuU/ml"}, {"measurement": "DNase activity in hepatic vein", "setting": "[2]", "value": 1.05, "unit": "mKuU/ml"}, {"measurement": "Cell free DNA in blood", "setting": "Circulating cfDNA", "value": "241 ± 11", "unit": "ng/mL"}]}
{"molecule": "RhDNase I: recombinant human DNase I in Patutina, 2011 (protein, UniProt P24855 23-282, looked up) Deoxyribonuclease-1: LKIAAFNIQTFGETKMSNATLVSYIVQILSRYDIALVQEVRDSHLTAVGKLLDNLNQDAPDTYHYVVSEPLGRNSYKERYLFVYRPDQVSAVDSYYYDDGCEPCGNDTFNREPAIVRFFSRFTEVREFAIVPLHAAPGDAVAEIDALYDVYLDVQEKWGLEDVMLMGDFNAGCSYVRPSQWSSIRLWTSPTFQWLIPDSADTTATPTHCAYDRIVVAGMLLRGAVVPDSALPFNFQAAYGLSDQLAQAISDHYPVEVMLK", "values": [{"measurement": "suppressed the development of metastatic disease", "setting": "[3]", "value": "60-90%"}]}
{"molecule": "DNaseI: DNaseI used to treat GVHD in mice (Li, 2015) (protein, UniProt P24855 23-282, looked up) Deoxyribonuclease-1: LKIAAFNIQTFGETKMSNATLVSYIVQILSRYDIALVQEVRDSHLTAVGKLLDNLNQDAPDTYHYVVSEPLGRNSYKERYLFVYRPDQVSAVDSYYYDDGCEPCGNDTFNREPAIVRFFSRFTEVREFAIVPLHAAPGDAVAEIDALYDVYLDVQEKWGLEDVMLMGDFNAGCSYVRPSQWSSIRLWTSPTFQWLIPDSADTTATPTHCAYDRIVVAGMLLRGAVVPDSALPFNFQAAYGLSDQLAQAISDHYPVEVMLK", "values": [{"measurement": "treatment of GVHD in mice", "setting": "GVHD", "value": "successful use"}]}
{"molecule": "DNase I protein (wt): recombinant wild-type DNase I protein injected IV in Example 7 (protein, UniProt P24855 23-282, looked up) Deoxyribonuclease-1: LKIAAFNIQTFGETKMSNATLVSYIVQILSRYDIALVQEVRDSHLTAVGKLLDNLNQDAPDTYHYVVSEPLGRNSYKERYLFVYRPDQVSAVDSYYYDDGCEPCGNDTFNREPAIVRFFSRFTEVREFAIVPLHAAPGDAVAEIDALYDVYLDVQEKWGLEDVMLMGDFNAGCSYVRPSQWSSIRLWTSPTFQWLIPDSADTTATPTHCAYDRIVVAGMLLRGAVVPDSALPFNFQAAYGLSDQLAQAISDHYPVEVMLK", "values": [{"measurement": "Average ΔCt values for universal bacterial 16S from RT-PCR, brain", "setting": "[4]", "value": 27.417}, {"measurement": "Average ΔCt values for universal bacterial 16S from RT-PCR, liver", "setting": "[4]", "value": 25.752}, {"measurement": "Dnase activity in blood", "setting": "[5]", "value": 7.15, "unit": "mKuU/ml"}, {"measurement": "Average ΔCt values for brain NLRP3 from RT-PCR", "setting": "NLRP3", "value": 17.341}]}
